Laboratory results taken from ChEMBL document CHEMBL5523757, “Discovery, Synthesis, and Activity Evaluation of Novel Five-Membered Sulfur-Containing Heterocyclic Nucleosides as Potential Anticancer Agents In Vitro and In Vivo” (J Med Chem, 2024).

Columns and labels:
[1] = system: MCF7; assay: Antiproliferative activity against human MCF7 cells assessed as inhibition of cell growth incubated for 48 hrs by CCK-8 assay; format: functional, cell-based; conditions: Homo sapiens, MCF7, 48 h
[2] = Acute toxicity in female BALB/c mouse assessed as animal death at 200 to 400 mg/kg,ip observed after 1 day; format: organism-based; conditions: in vivo, 24 h, dose 200-400 mg/kg
[3] = Half life in BALB/c mouse plasma at 10 to 200 uM; format: ADME, cell-free; conditions: dose 10-200 µM
[4] = system: HepG2; assay: Antiproliferative activity against human HepG2 cells assessed as inhibition of cell growth incubated for 48 hrs by CCK-8 assay; format: functional, cell-based; conditions: Homo sapiens, HepG2, 48 h
[5] = Acute toxicity in male BALB/c mouse assessed as animal death at 200 to 400 mg/kg,ip observed after 1 day; format: organism-based; conditions: in vivo, 24 h, dose 200-400 mg/kg
[6] = Acute toxicity in female BALB/c mouse assessed as animal death at 200 to 600 mg/kg,ip observed after 2 day; format: organism-based; conditions: in vivo, 48 h, dose 200-600 mg/kg
[7] = Toxicity in BALB/c mouse xenografted with human HeLa cells assessed as change in body weight at 15 to 60 mg/kg,ip once daily for 14 days; format: organism-based; conditions: in vivo, 336 h, dose 15-60 mg/kg, time 14 day
[8] = Toxicity in BALB/c mouse xenografted with human HeLa cells assessed as histopathological change in heart at 15 to 60 mg/kg,ip once daily for 14 days by hematoxylin and eosin staining analysis; format: organism-based; conditions: in vivo, 336 h, dose 15-60 mg/kg, time 14 day
[9] = Acute toxicity in BALB/c mouse assessed as animal survival at 200 mg/kg,ip observed after 14 days; format: organism-based; conditions: in vivo, time 14 day
[10] = system: PANC-1; assay: Antiproliferative activity against human PANC-1 cells assessed as inhibition of cell growth incubated for 48 hrs by CCK-8 assay; format: functional, cell-based; conditions: panc-1
[11] = Acute toxicity in BALB/c mouse assessed as animal survival at 800 mg/kg,ip observed after 14 days; format: organism-based; conditions: in vivo, time 14 day
[12] = Acute toxicity in BALB/c mouse assessed as lethal dose at ip administration observed after 14 days; format: organism-based; conditions: in vivo, time 14 day
[13] = Acute toxicity in female BALB/c mouse assessed as animal death at 200 to 1000 mg/kg,ip observed after 3 days; format: organism-based; conditions: in vivo, 72 h, dose 200-1000 mg/kg, time 3 day
[14] = Acute toxicity in male BALB/c mouse assessed as animal death at 200 to 1000 mg/kg,ip observed for 4 to 15 days; format: organism-based; conditions: in vivo, dose lower 200 mg/kg, time lower 4 day, dose upper 1000 mg/kg, time upper 15 day
[15] = system: A549; assay: Antiproliferative activity against human A549 cells assessed as inhibition of cell growth incubated for 48 hrs by CCK-8 assay; format: functional, cell-based; conditions: Homo sapiens, A549, 48 h
[16] = Acute toxicity in male BALB/c mouse assessed as animal death at 200 to 600 mg/kg,ip observed after 2 day; format: organism-based; conditions: in vivo, 48 h, dose 200-600 mg/kg
[17] = Toxicity in BALB/c mouse xenografted with human HeLa cells assessed as histopathological change in spleen at 15 to 60 mg/kg,ip once daily for 14 days by hematoxylin and eosin staining analysis; format: organism-based; conditions: in vivo, 336 h, dose 15-60 mg/kg, time 14 day
[18] = Acute toxicity in BALB/c mouse assessed as animal survival at 400 mg/kg,ip observed after 14 days; format: organism-based; conditions: in vivo, time 14 day
[19] = Acute toxicity in BALB/c mouse assessed as animal survival at 600 mg/kg,ip observed after 14 days; format: organism-based; conditions: in vivo, time 14 day
[20] = Toxicity in BALB/c mouse xenografted with human HeLa cells assessed as histopathological change in lung at 15 to 60 mg/kg,ip once daily for 14 days by hematoxylin and eosin staining analysis; format: organism-based; conditions: in vivo, 336 h, dose 15-60 mg/kg, time 14 day
[21] = Toxicity in BALB/c mouse xenografted with human HeLa cells assessed as histopathological change in liver at 15 to 60 mg/kg,ip once daily for 14 days by hematoxylin and eosin staining analysis; format: organism-based; conditions: in vivo, 336 h, dose 15-60 mg/kg, time 14 day
[22] = Acute toxicity in BALB/c mouse assessed as animal survival at 1000 mg/kg,ip observed after 14 days; format: organism-based; conditions: in vivo, time 14 day
[23] = system: HeLa; assay: Antiproliferative activity against human HeLa cells assessed as inhibition of cell growth incubated for 48 hrs by CCK-8 assay; format: functional, cell-based; conditions: hela
[24] = Acute toxicity in male BALB/c mouse assessed as animal death at 200 to 1000 mg/kg,ip observed after 3 days; format: organism-based; conditions: in vivo, 72 h, dose 200-1000 mg/kg, time 3 day
[25] = Acute toxicity in female BALB/c mouse assessed as animal death at 1000 mg/kg,ip observed after 2 day; format: organism-based; conditions: in vivo, 48 h
[26] = Acute toxicity in female BALB/c mouse assessed as animal death at 200 to 1000 mg/kg,ip observed for 4 to 15 days; format: organism-based; conditions: in vivo, dose lower 200 mg/kg, time lower 4 day, dose upper 1000 mg/kg, time upper 15 day
[27] = system: HeLa; assay: Induction of apoptosis in human HeLa cells at 2 to 8 uM incubated for 48 hrs by annexin V-FITC/PI staining based flow cytometry relative to control; format: functional; conditions: dose 2-8 µM
[28] = Toxicity in BALB/c mouse xenografted with human HeLa cells assessed as histopathological change in kidney at 15 to 60 mg/kg,ip once daily for 14 days by hematoxylin and eosin staining analysis; format: organism-based; conditions: in vivo, 336 h, dose 15-60 mg/kg, time 14 day
[29] = system: HCT-116; assay: Antiproliferative activity against human HCT-116 cells assessed as inhibition of cell growth incubated for 48 hrs by CCK-8 assay; format: functional, cell-based; conditions: Homo sapiens, HCT-116, 48 h

Structure (SMILES): CCOC(=O)C[C@H]1CSC[C@]1(C(=O)OCC)n1cnc2c(Cl)nc(Cl)nc21 (racemic)
- IC50 [1]: 5.54 µM
- Activity [2]: Non-Toxic
- half-life at up to 200 µM [3]: 180 min
- IC50 [4]: 32.7 µM
- Activity [5]: Non-Toxic
- Activity [6]: Non-Toxic
- Activity [7]: Non-Toxic
- Activity [8]: Non-Toxic
- survival at 336 h [9]: 100%
- IC50 [10]: 13 µM
- survival at 336 h [11]: 10%
- LD50 at 336 h [12]: 613 mg/kg
- Activity [13]: Non-Toxic
- Activity [14]: Non-Toxic
- IC50 [15]: 46 µM
- Activity [16]: Non-Toxic
- Activity [17]: Non-Toxic
- survival at 336 h [18]: 100%
- survival at 336 h [19]: 50%
- Activity [20]: Non-Toxic
- Activity [21]: Non-Toxic
- survival at 336 h [22]: 0%
- IC50 [23]: 2800 nM
- Activity [24]: Non-Toxic
- Activity [25]: Non-Toxic
- Activity [26]: Non-Toxic
- Activity [27]: 8.05%
- Activity [28]: Non-Toxic
- IC50 [29]: 3.82 µM
